Laboratory results published in patent publication US20260365699A1, “Compound Production Method” (The University of Tokyo, priority 2022, published 2026).
*1 amine or outer side, *2 acyl side, *3 side chain or, on linkers, in order; H or OH if unused. Where a SMILES comes first, the peptide text is derived from it. Bridges are numbered along the chain shown (N, C = ends). X1 = C=C(N[*:2])c1nc(-c2nc(-c3nc(C(=O)OC)cs3)ccc2C(=O)[*:1])cs1

Assays:
[1] = biological target: T1, TLR10 (Homo sapiens, UniProt Q9BXR5); experiment: Surface plasmon resonance (SPR) binding affinity to TLR10
T1 sequence (Q9BXR5 20-811): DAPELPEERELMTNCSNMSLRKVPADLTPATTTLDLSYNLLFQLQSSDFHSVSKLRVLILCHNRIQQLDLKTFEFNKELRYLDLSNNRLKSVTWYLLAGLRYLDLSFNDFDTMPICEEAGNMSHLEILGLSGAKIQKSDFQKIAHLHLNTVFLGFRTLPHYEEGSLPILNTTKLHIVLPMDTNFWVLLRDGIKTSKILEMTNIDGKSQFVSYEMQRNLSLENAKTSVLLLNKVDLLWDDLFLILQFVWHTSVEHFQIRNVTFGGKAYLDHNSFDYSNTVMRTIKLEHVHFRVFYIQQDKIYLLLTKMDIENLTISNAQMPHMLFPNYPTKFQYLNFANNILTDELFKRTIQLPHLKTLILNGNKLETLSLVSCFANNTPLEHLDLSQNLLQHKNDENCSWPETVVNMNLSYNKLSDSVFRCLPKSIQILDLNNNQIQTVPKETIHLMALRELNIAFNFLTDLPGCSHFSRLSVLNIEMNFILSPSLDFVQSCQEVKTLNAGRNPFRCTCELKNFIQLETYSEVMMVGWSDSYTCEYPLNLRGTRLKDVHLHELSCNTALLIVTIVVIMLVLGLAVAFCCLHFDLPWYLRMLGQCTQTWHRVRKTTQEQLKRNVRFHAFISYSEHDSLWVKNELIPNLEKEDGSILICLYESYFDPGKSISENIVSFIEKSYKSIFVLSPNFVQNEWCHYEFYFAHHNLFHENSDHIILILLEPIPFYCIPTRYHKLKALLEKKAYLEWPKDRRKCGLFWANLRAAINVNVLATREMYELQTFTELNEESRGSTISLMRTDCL
Protocol: Next, the binding affinity of each of the synthesized thiopeptides (14 types excluding IR1-ct and IR15-ct in FIG. 8) to the target IRAK4 and TLR10 was examined using surface plasmon resonance (SPR). […] Next, using an ADP-Glo-based kinase inhibition assay, the IC50 values of 4 types of thiopeptides for IRAK4 excluding IR1-ct and IR15-ct were evaluated.

[2] = biological target: LOK (Homo sapiens, UniProt O94804); experiment: Kinase selectivity profiling (LOK); format: biochemical; conditions: concentration of 1 μM
Protocol: (§1) Next, a kinase selectivity profiling experiment was carried out using a panel of various human kinases.

[3] = test system: TNIK; experiment: TNIK protein level in HCT116 cells (immunoblotting); format: cell-based, human
Protocol: (§2) The sub-confluent HCT116 cells were treated with the indicated compounds for 24 hours and the cellular levels of TNIK, TNIK pSer764 (autophosphorylation product), c-Myc, and Axin2 were analyzed by an immunoblotting method (FIG. 7(b)) and RT-qPCR (FIG. 7(c)).

[4] = Metabolic stability in human serum (LC/MS); format: in vitro ADME; conditions: 37 °C
Protocol: The compounds were incubated with a human serum at 37 °C, and the amount of the residual test substance at various points in time was quantified by LC/MS with respect to an internal standard substance. […] Next, it was examined whether or not the half-lives of the compounds were affected by the reactivity of the Dha residue. The Dha residue may be conjugated with various serum thiols.
In addition, the metabolic stability of all of the 14 types of candidate thiopeptides was examined. The compound was incubated with the human serum at 37 °C, and the amount of the residual thiopeptide at various points in time was quantified by LC/MS with respect to the internal standard substance. The half-life of the thiopeptide for TLR10 was generally as long as 38.2 hours, and the thiopeptide was stable.

[5] = biological target: T2, TNIK (Homo sapiens, UniProt Q9UKE5); experiment: Kinetic analysis (Lineweaver-Burk plots) of TNIK inhibition; format: biochemical; conditions: role: inhibitor
[6] = test system: Axin2; experiment: Axin2 protein level in HCT116 cells (immunoblotting); format: cell-based, human; conditions: 20 μM, 24 hours
Protocol: as §2

[7] = biological target: T2, TNIK; experiment: Surface plasmon resonance (SPR) binding affinity to TNIK; conditions: saturated concentration of ATP (1 mM; 15-fold higher than KM)
Text: Surface plasmon resonance (SPR) was used to evaluate the binding affinity of the thiopeptide synthesized in Example 2 to TNIK.

[8] = Stability / reactivity towards glutathione (GSH), LC/MS; format: physicochemical
[9] = test system: HEK293H cells; experiment: Chloroalkane penetration assay (CAPA) in HEK293H cells; format: cell-based, human; conditions: chloroalkane-labeled derivatives
Protocol: as §2
Next, it was confirmed whether or not the obtained compound could also access an intracellular target protein (TNIK is localized in the cytoplasm and the cell nucleus) in a human cell model. First, a chloroalkane penetration assay (CAPA) was performed on 4 types (TP1-ct, TP8-ct, TP14-ct, and TP15-ct) out of the 6 types of chloroalkane-labeled thiopeptide derivatives shown in FIG. 5 in order to measure an uptake degree into the cytoplasm (Peraro, L.; Deprey, K. L.; Moser, M. K.; Zou, Z.; Ball, H. L.; Levine, B.; and Kritzer, J. A. Cell Penetration Profiling Using the Chloroalkane Penetration Assay. J. Am. Chem. Soc. 2018, 140, 11360-11369).

[10] = test system: TNIK pSer764; experiment: Immunoblotting of TNIK pSer764 (TNIK autophosphorylation) in HCT116 cells; format: cell-based, human
Protocol: as §2
Nat. Commun. 2016, 7, 12586).

[11] = test system: TNIK mRNA; experiment: TNIK mRNA level in HCT116 cells (RT-qPCR); format: cell-based, human
Protocol: as §2

[12] = biological target: T3, MST1 (Homo sapiens, UniProt Q13043); experiment: Kinase selectivity profiling (MST1); format: biochemical; conditions: concentration of 1 μM
T3 sequence (Q13043 1-487): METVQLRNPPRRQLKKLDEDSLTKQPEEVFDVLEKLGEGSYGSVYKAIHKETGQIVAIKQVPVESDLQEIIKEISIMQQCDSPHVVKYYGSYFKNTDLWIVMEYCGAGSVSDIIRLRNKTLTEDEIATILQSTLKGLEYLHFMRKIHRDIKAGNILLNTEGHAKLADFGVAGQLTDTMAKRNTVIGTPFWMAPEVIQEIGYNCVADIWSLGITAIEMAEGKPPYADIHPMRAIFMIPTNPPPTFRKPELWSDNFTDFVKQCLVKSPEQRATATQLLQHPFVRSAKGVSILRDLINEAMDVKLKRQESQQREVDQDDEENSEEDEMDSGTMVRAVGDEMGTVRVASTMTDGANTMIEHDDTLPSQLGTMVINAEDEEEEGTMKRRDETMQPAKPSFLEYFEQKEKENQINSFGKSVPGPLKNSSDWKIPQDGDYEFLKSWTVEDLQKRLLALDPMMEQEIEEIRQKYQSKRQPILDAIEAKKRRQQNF
Protocol: as §1

[13] = test system: AXIN2 mRNA; experiment: AXIN2 mRNA transcription in HCT116 cells (RT-qPCR); format: cell-based, human
Protocol: as §2

[14] = test system: MYC mRNA; experiment: MYC mRNA transcription in HCT116 cells (RT-qPCR); format: cell-based, human
Protocol: as §2

[15] = test system: c-Myc; experiment: c-Myc protein level in HCT116 cells (immunoblotting); format: cell-based, human; conditions: 20 μM, 24 hours
Protocol: as §2

T2 sequence (Q9UKE5 whole entry): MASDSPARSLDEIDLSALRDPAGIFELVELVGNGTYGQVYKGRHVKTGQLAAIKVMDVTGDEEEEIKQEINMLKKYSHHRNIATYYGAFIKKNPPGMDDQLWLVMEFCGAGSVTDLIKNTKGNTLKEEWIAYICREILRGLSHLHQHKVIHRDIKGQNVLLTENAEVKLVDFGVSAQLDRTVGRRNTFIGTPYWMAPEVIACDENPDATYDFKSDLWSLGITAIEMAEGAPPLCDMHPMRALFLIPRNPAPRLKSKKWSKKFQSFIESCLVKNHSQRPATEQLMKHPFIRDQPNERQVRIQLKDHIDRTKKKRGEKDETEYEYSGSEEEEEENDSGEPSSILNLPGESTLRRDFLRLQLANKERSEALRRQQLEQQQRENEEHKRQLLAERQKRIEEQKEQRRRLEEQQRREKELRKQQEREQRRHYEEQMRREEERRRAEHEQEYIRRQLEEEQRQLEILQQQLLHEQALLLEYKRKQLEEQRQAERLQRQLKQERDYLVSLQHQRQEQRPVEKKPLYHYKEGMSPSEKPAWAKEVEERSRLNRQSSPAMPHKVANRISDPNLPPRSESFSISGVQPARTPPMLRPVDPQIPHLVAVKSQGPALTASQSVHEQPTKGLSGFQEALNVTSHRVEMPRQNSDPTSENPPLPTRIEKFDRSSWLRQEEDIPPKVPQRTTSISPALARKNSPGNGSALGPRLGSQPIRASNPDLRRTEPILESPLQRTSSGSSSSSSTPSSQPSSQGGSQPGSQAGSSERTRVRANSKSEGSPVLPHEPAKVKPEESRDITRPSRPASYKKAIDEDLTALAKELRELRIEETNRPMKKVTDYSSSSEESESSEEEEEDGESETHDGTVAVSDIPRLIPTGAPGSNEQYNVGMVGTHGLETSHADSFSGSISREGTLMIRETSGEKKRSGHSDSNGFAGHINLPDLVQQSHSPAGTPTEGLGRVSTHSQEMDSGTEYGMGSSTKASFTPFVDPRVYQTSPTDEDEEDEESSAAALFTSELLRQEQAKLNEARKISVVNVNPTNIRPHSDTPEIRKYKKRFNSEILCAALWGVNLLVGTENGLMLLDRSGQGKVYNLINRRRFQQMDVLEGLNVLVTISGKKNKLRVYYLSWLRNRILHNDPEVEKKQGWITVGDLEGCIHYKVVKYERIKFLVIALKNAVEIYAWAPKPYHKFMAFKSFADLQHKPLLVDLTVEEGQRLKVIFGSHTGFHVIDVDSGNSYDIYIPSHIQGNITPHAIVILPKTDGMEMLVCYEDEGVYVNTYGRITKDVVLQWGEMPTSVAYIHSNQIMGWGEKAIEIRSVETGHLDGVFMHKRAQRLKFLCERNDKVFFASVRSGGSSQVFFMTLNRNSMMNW
Sequence of LOK (O94804 whole entry): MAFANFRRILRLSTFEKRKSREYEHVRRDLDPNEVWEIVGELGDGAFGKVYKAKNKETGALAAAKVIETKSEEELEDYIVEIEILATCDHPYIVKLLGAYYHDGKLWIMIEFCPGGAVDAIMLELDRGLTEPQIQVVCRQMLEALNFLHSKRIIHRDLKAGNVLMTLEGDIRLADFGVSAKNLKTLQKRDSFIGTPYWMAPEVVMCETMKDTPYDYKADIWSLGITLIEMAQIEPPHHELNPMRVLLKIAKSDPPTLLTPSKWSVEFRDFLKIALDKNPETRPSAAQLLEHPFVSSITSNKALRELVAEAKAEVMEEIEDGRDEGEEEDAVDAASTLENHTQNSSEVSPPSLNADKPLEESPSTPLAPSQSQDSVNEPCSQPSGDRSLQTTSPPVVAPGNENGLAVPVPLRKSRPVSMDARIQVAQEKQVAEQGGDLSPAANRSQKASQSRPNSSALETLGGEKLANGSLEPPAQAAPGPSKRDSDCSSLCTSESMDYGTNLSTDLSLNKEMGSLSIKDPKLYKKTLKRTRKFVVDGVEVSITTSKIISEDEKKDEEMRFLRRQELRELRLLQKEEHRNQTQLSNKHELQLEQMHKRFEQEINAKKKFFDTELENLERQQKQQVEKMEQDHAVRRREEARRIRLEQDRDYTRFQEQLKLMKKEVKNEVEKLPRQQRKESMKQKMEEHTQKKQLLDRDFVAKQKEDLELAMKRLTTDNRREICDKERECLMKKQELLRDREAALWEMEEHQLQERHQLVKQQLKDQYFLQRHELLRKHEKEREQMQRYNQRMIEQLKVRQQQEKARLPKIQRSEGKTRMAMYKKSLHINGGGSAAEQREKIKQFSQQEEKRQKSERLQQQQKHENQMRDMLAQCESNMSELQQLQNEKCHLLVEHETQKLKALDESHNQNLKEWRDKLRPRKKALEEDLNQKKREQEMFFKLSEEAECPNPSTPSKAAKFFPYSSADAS

SMILES	Kd [1] [nM]	inhibition of LOK [2]	overall expression of TNIK, protein level [3]	stability in human serum, in words [4]	mode of TNIK inhibition [5]	protein level of Axin2 [6]	binding to TNIK in the presence of ATP [7]	residual amount in the presence of GSH ([8]; 10 mM GSH, after 24 hours) [%]	reactivity with GSH, in words ([8]; increasing concentration of glutathione (GSH))	cytoplasmic uptake (CAPA), in words [9]	level of TNIK pSer764 ([10]; 20 μM of TP15, 24 hours, immunoblotting)	TNIK autophosphorylation, in words (figure legend) ([10]; 24 hours)	overall expression of TNIK, mRNA level [11]	inhibition of MST1 [12]	transcription of AXIN2 mRNA [13]	transcription of MYC mRNA [14]	protein level of c-Myc [15]
C=C1NC(=O)[C@H](Cc2c[nH]cn2)NC(=O)[C@H]([C@@H](C)CC)NC(=O)[C@H](C(C)C)NC(=O)[C@H](C(C)C)NC(=O)[C@H](CC(N)=O)NC(=O)[C@H](C(C)C)NC(=O)[C@H](CCCNC(=N)N)NC(=O)[C@H](CO)NC(=O)[C@H](CC(C)C)NC(=O)[C@H](CCC(=O)O)NC(=O)[C@H](CC(C)C)NC(=O)[C@H](CO)NC(=O)[C@H](Cc2c[nH]c3ccccc23)NC(=O)c2ccc(-c3nc(C(=O)OC)cs3)nc2-c2csc1n2 [TL7] (WSLELSRVNVVIH; linker N-C via X1)	306																
C=C1NC(=O)c2csc(n2)[C@H]([C@@H](C)O)NC(=O)[C@H](C)NC(=O)[C@H]([C@@H](C)CC)NC(=O)[C@H](CCCNC(=N)N)NC(=O)CNC(=O)[C@H](CCCNC(=N)N)NC(=O)[C@H]([C@@H](C)O)NC(=O)[C@H](CCCNC(=N)N)NC(=O)[C@H]([C@@H](C)CC)NC(=O)[C@H]([C@@H](C)O)NC(=O)[C@H](Cc2c[nH]c3ccccc23)NC(=O)c2ccc(-c3nc(C(=O)OC)cs3)nc2-c2csc1n2 [TP15]		inhibited	not TP15	short half-life	substrate competitive inhibitor	decreased	bonded to TNIK in the presence of the saturated concentration of ATP	> 95	stable	efficient cytoplasmic translocation	decreased	inhibition of TNIK autophosphorylation	not TP15	inhibited	suppressed in a concentration-dependent manner	suppressed in a concentration-dependent manner	decreased
